Assay results: patent US8969352B2, “Substituted 2-azabicycles and their use as orexin receptor modulators” (Janssen Pharmaceutica NV, priority 2013, dated 2015)

Assays:
human orexin 1 receptor = human orexin 1 receptor (Homo sapiens, UniProt O43613); experiment: Human orexin 1 receptor radioligand binding; conditions: CHO cells stably expressing human orexin 1 receptor; competitive radioligand binding, apparent Ki; read-out: hOX1 Ki
Experimental: (§1) Rat and Human Orexin 1 Receptor Radioligand Binding Studies
(§2) After centrifugation (2K×G, 5 min at 4° C.), the supernatant was aspirated and the pellets frozen and stored at −80° C. […] Each cell pellet from a 15 cm plate was resuspended in 10 mL, stored on ice, and homogenized for 45 sec prior to addition to the reactions. […] The final concentration of DMSO in the reactions is equal to or less than 0.1%. Total and nonspecific binding was determined in the absence and presence of 10 μM almorexant. The total volume of each reaction is 200 μL (20 μL of diluted compounds, 80 μL of [^3H]-(1-(5-(2-fluoro-phenyl)-2-methyl-thiazol-4-yl)-1-((S)-2-(5-phenyl-(1,3,4)oxadiazol-2-ylmethyl)-pyrrolidin-1-yl)-methanone) diluted in PBS and 100 μL of the cell suspension). […] The plates were washed 3 times by aspirating 30 ml PBS through the plates. Plates were dried in 55° C. oven for 60 min, scintillation fluid was added, and the radioactivity was counted on a Topcount (Packard).

rat orexin 1 receptor = rat orexin 1 receptor (Rattus norvegicus, UniProt P56718); experiment: Rat orexin 1 receptor radioligand binding; conditions: HEK293 cells stably expressing rat orexin 1 receptor; competitive radioligand binding, apparent Ki; read-out: rOX1 Ki
Experimental: as §1, §2

human orexin 2 receptor = human orexin 2 receptor (Homo sapiens (Human), UniProt O43614); experiment: Human orexin 2 receptor radioligand binding; conditions: HEK293 stably expressing human orexin 2 receptor; [3H]-EMPA competitive binding, apparent Ki; read-out: hOX2 Ki
Sequence of human orexin 2 receptor (O43614 whole entry): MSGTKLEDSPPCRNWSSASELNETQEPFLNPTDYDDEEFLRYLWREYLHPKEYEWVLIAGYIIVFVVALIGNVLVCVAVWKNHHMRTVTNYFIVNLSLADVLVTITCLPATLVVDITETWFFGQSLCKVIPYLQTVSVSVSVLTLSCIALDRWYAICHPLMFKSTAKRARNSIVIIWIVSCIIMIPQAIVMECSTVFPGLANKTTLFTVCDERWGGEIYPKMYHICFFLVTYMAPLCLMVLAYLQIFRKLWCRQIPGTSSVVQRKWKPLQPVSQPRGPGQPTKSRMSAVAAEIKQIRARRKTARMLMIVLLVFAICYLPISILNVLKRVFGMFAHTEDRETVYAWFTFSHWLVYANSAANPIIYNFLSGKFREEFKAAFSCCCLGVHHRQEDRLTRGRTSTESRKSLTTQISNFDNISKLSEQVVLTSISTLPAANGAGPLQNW
Experimental: Human Orexin 2 Receptor Radioligand Binding Studies
as §2, with “sec just” for “sec”, “reactions. Competition binding experiments in 96 well polypropylene plates were performed using [^3H]-EMPA (Moraveck Corporation, specific activity=29.6 Ci/mmol), diluted to a 5 nM concentration in PBS (2 nM final concentration).” for “reactions.”, “[^3H]-EMPA” for “[^3H]-(1-(5-(2-fluoro-phenyl)-2-methyl-thiazol-4-yl)-1-((S)-2-(5-phenyl-(1,3,4)oxadiazol-2-ylmethyl)-pyrrolidin-1-yl)-methanone)”

Ki (human orexin 1 receptor)	Ki (rat orexin 1 receptor)	Ki (human orexin 2 receptor)	SMILES
12 nM	10 nM	–	O=C(c1c(F)cccc1-n1nccn1)N1C[C@H]2C[C@@H](Oc3ccc(C(F)(F)F)cn3)[C@@H]1C2 [Example 46, (2-fluoro-6-(2H-1,2,3-triazol-2-yl)phenyl)((1S,4R,6R)-6-((5-(trifluoromethyl)pyridin-2-yl)oxy)-2-azabicyclo[2.2.1]heptan-2-yl)methanone]
8 nM	8 nM	690 nM	O=C(c1c(F)cccc1-c1ncccn1)N1C[C@H]2C[C@@H](Oc3ccc(C(F)(F)F)cn3)[C@@H]1C2 [Example 38, (2-fluoro-6-(pyrimidin-2-yl)phenyl)((1S,4R,6R)-6-((5-(trifluoromethyl)pyridin-2-yl)oxy)-2-azabicyclo[2.2.1]heptan-2-yl)methanone]
59 nM	44 nM	> 10000 nM	COc1ccc(C(=O)N2CC3CC(Oc4ccc(C(F)(F)F)cn4)C2C3)c(-c2ncccn2)c1 (racemic) [Example 12, (R/S)-(4-methoxy-2-(pyrimidin-2-yl)phenyl)(6-((5-(trifluoromethyl)pyridin-2-yl)oxy)-2-azabicyclo[2.2.1]heptan-2-yl)methanone]
6 nM	3 nM	972 nM	O=C(c1cccc(F)c1-c1ncccn1)N1C[C@H]2C[C@@H](Oc3ccc(Br)cn3)[C@@H]1C2 [Example 48, ((1S,4R,6R)-6-((5-bromopyridin-2-yl)oxy)-2-azabicyclo[2.2.1]heptan-2-yl)(3-fluoro-2-(pyrimidin-2-yl)phenyl)methanone]
–	707 nM	> 10000 nM	COc1c(F)cccc1C(=O)N1C[C@H]2C[C@@H](Oc3ccc(C(F)(F)F)cn3)[C@@H]1C2 [Example 31, (3-fluoro-2-methoxyphenyl)((1S,4R,6R)-6-((5-(trifluoromethyl)pyridin-2-yl)oxy)-2-azabicyclo[2.2.1]heptan-2-yl)methanone]
23 nM	25 nM	–	O=C(c1c(F)cccc1-n1nccn1)N1CC2CC(Oc3ccc(C(F)(F)F)cn3)C1C2 (racemic) [Example 18, (R/S)-(2-fluoro-6-(2H-1,2,3-triazol-2-yl)phenyl)(6-((5-(trifluoromethyl)pyridin-2-yl)oxy)-2-azabicyclo[2.2.1]heptan-2-yl)methanone]
4 nM	3 nM	–	Cc1cccc(C(=O)N2C[C@H]3C[C@@H](Oc4ccc(C(F)(F)F)cn4)[C@@H]2C3)c1-c1ncco1 [Example 32, (3-methyl-2-(oxazol-2-yl)phenyl)((1S,4R,6R)-6-((5-(trifluoromethyl)pyridin-2-yl)oxy)-2-azabicyclo[2.2.1]heptan-2-yl)methanone]
–	294 nM	676 nM	O=C(c1ccccc1-n1nccn1)N1C[C@H]2C[C@@H](Oc3ncccc3C(F)(F)F)[C@@H]1C2 [Example 51, (2-(2H-1,2,3-triazol-2-yl)phenyl)((1S,4R,6R)-6-((3-(trifluoromethyl)pyridin-2-yl)oxy)-2-azabicyclo[2.2.1]heptan-2-yl)methanone]
120 nM	74 nM	–	O=C(c1ccccc1-n1nccn1)N1CC2CC(Oc3cnc(C(F)(F)F)cn3)C1C2 (racemic) [Example 1, (R/S)-(2-(2H-1,2,3-triazol-2-yl)phenyl)(6-((5-(trifluoromethyl)pyrazin-2-yl)oxy)-2-azabicyclo[2.2.1]heptan-2-yl)methanone]
–	–	1450 nM	CCOc1ncc2ccccc2c1C(=O)N1CC2CC(Oc3ccc(C(F)(F)F)cn3)C1C2 (racemic) [Example 8, (R/S)-(3-ethoxyisoquinolin-4-yl)(6-((5-(trifluoromethyl)pyridin-2-yl)oxy)-2-azabicyclo[2.2.1]heptan-2-yl)methanone]
–	–	2100 nM	O=C(c1ccc(F)cc1-c1ncccn1)N1C[C@H]2C[C@@H](Oc3ccc(C(F)(F)F)cn3)[C@@H]1C2 [Example 26, (4-fluoro-2-(pyrimidin-2-yl)phenyl)((1S,4R,6R)-6-((5-(trifluoromethyl)pyridin-2-yl)oxy)-2-azabicyclo[2.2.1]heptan-2-yl)methanone]
–	550 nM	4000 nM	Cc1ccc(-n2nccn2)c(C(=O)N2C[C@H]3C[C@@H](Oc4ncccc4C(F)(F)F)[C@@H]2C3)n1 [Example 52, (6-methyl-3-(2H-1,2,3-triazol-2-yl)pyridin-2-yl)((1S,4R,6R)-6-((3-(trifluoromethyl)pyridin-2-yl)oxy)-2-azabicyclo[2.2.1]heptan-2-yl)methanone]
–	8 nM	–	O=C(c1cccc(F)c1-n1nccn1)N1C[C@H]2C[C@@H](Oc3ccc(C(F)(F)F)cn3)[C@@H]1C2 [Example 35, (3-fluoro-2-(2H-1,2,3-triazol-2-yl)phenyl)((1S,4R,6R)-6-((5-(trifluoromethyl)pyridin-2-yl)oxy)-2-azabicyclo[2.2.1]heptan-2-yl)methanone]
–	–	2700 nM	O=C(c1ccc(F)cc1-c1ncccn1)N1CC2CC(Oc3ccc(C(F)(F)F)cn3)C1C2 (racemic) [Example 20, (R/S)-(4-fluoro-2-(pyrimidin-2-yl)phenyl)(-6-((5-(trifluoromethyl)pyridin-2-yl)oxy)-2-azabicyclo[2.2.1]heptan-2-yl)methanone]
–	4400 nM	> 10000 nM	Cc1cnn(C)c1-c1ccccc1C(=O)N1C[C@H]2C[C@@H](Oc3ccc(C(F)(F)F)cn3)[C@@H]1C2 [Example 41, (2-(1,4-dimethyl-1H-pyrazol-5-yl)phenyl)((1S,4R,6R)-6-((5-(trifluoromethyl)pyridin-2-yl)oxy)-2-azabicyclo[2.2.1]heptan-2-yl)methanone]
–	837 nM	> 10000 nM	Cc1cnc(C(=O)N2CC3CC(Oc4cnc(C(F)(F)F)cn4)C2C3)c(-n2nccn2)c1 (racemic) [Example 4]
–	–	234 nM	Cc1cccc(C(=O)N2CC3CC(Oc4ccc(C(F)(F)F)cn4)C2C3)c1-n1nccn1 (racemic) [Example 17, (R/S)-(3-methyl-2-(2H-1,2,3-triazol-2-yl)phenyl)(6-((5-(trifluoromethyl)pyridin-2-yl)oxy)-2-azabicyclo[2.2.1]heptan-2-yl)methanone]
12 nM	21 nM	–	O=C(c1ccccc1-n1nccn1)N1CC2CC(Oc3ccc(C(F)(F)F)cn3)C1C2 (racemic) [Example 7, (R/S)-(2-(2H-1,2,3-triazol-2-yl)phenyl)(6-((5-(trifluoromethyl)pyridin-2-yl)oxy)-2-azabicyclo[2.2.1]heptan-2-yl)methanone]
–	–	229 nM	COc1cccc(-n2nccn2)c1C(=O)N1CC2CC(Oc3ccc(C(F)(F)F)cn3)C1C2 (racemic) [Example 15]
11 nM	5 nM	–	O=C(c1ccccc1-n1nccn1)N1C[C@H]2C[C@@H](Oc3ccc(C(F)(F)F)cn3)[C@@H]1C2 [Example 36, (2-(2H-1,2,3-triazol-2-yl)phenyl)((1S,4R,6R)-6-((5-(trifluoromethyl)pyridin-2-yl)oxy)-2-azabicyclo[2.2.1]heptan-2-yl)methanone]

SMILES	Ki (human orexin 1 receptor)	Ki (rat orexin 1 receptor)	Ki (human orexin 2 receptor)
O=C(c1cccc(F)c1-n1nccn1)N1CC2CC(Oc3ccc(C(F)(F)F)cn3)C1C2 (racemic) [Example 16, (R/S)-(3-fluoro-2-(2H-1,2,3-triazol-2-yl)phenyl)(6-((5-(trifluoromethyl)pyridin-2-yl)oxy)-2-azabicyclo[2.2.1]heptan-2-yl)methanone]	–	8 nM	–
O=C(c1c(F)cccc1-c1ncccn1)N1C[C@H]2C[C@@H](Oc3ccc(Br)cn3)[C@@H]1C2 [Example 47, ((1S,4R,6R)-6-((5-bromopyridin-2-yl)oxy)-2-azabicyclo[2.2.1]heptan-2-yl)(2-fluoro-6-(pyrimidin-2-yl)phenyl)methanone]	11 nM	7 nM	–
O=C(c1ccccc1-n1cnnc1)N1CC2CC(Oc3ccc(C(F)(F)F)cn3)C1C2 (racemic) [Example 21, (R/S)-(2-(4H-1,2,4-triazol-4-yl)phenyl)(6-((5-(trifluoromethyl)pyridin-2-yl)oxy)-2-azabicyclo[2.2.1]heptan-2-yl)methanone]	–	> 10000 nM	> 10000 nM
O=C(c1ccccc1-n1nccn1)N1C[C@H]2C[C@@H](Nc3ccc(C(F)(F)F)cn3)[C@@H]1C2 [Example 53, (2-(2H-1,2,3-triazol-2-yl)phenyl)((1S,4S,6R)-6-((5-(trifluoromethyl)pyridin-2-yl)amino)-2-azabicyclo[2.2.1]heptan-2-yl)methanone]	3 nM	3 nM	–
